What is called ED50 is the dose at which the effect has come halfway, by size or by number of responders. Read a low ED50 as an effect at a small dose.

Data on one compound can be found in paper PMC6482291, “Anticonvulsant Activity of Pterostilbene in Zebrafish and Mouse Acute Seizure Tests” (Neurochemical Research, 2019).

Data set [1] has as its system PTZ-induced epileptiform discharges in zebrafish larvae. As to the kind of experiment: Electrographic discharge assessment (LFP recordings from optic tectum) in zebrafish larvae exposed to PTZ. The following applies: 10 µM PTE, 2 h incubation, 20 mM PTZ, 20 min recording. Type of data set: in vivo, Danio rerio. The method, then: For local field potential (LFP) recordings, zebrafish larvae were incubated for 2 h, as described above. After incubation, larvae were exposed to vehicle or 20 mM PTZ for 5 min. Thereafter, larvae were immobilized in a thin layer of 2% low-melting-point agarose and the glass electrode (resistance […]) filled with artificial cerebrospinal fluid (124 mM NaCl, 2 mM KCl, 2 mM MgSO4, 2 Mm CaCl2, 1.25 mM KH2PO4, 26 mM NaHCO3, 10 mM glucose) was placed into the optic tectum (MultiClamp 700B amplifier, Digidata 1440A digitizer, Axon instruments, USA). Single recordings for each larva were performed for a period of 20 min. The discharges were analyzed according to the duration of spiking paroxysms and only those where the amplitude exceeded three times the background noise were taken into account. The data were analyzed with the aid of Clampfit 10.2 software (Molecular Devices Corporation, USA).

The subject of data set [2] is PTZ-induced seizures in mice. As to the kind of experiment: Timed iv PTZ seizure threshold test in mice. The following applies: for threshold for the first myoclonic twitch vs negative control: p < 0.001. Type of data set: in vivo. How it is done: Each mice was placed in the cylindrical restrainer and the needle (27G, 3/4 in., Sterican®, B. Braun Melsungen AG, Melsungen, Germany) was injected into the lateral tail vein. The needle was attached by the polyethylene drain (PE20RW, Plastic One Inc. Roanoke, VA, USA) with the syringe containing 1% solution of PTZ (Sigma–Aldrich, St. Louis, MO, USA) in water and the syringe was located in the infuse pomp (model Physio 22, Hugo Sachs Elektronik–Harvard Apparatus GmbH, March-Hugstetten, Germany). The correct placement of the needle in the vein was confirmed based on the presence of the blood in the drain and the needle was protected against displacement by a peace of adhesive tape. Following injection, mice were took out from the restrainer and placed in the Plexiglas box for observation. The PTZ solution was infused into the vein at a constant rate of 0.2 ml/min. The time intervals from the start of infusion of PTZ solution to the beginning of three kinds of seizures, i.e., the first myoclonic twitch, generalized clonus with loss of the righting reflex and forelimb tonic extension, were noted. Infusion of PTZ solution was stopped immediately after onset of the tonic seizures, which usually were lethal. If animal survived the test, it was euthanized immediately. The threshold dose of PTZ (in mg/kg body weight) for each kind of seizures was calculated according to the following formula: PTZmg/kg=infusion durations×infusion rateml/s×PTZ concentrationmg/ml/weightkg
Experimental groups consisted of 9–13 animals. The data obtained in the iv PTZ test are presented as the threshold dose of PTZ (in mg/kg) + standard error of the mean (SEM) needed to elicit the respective kind of seizures. The data were analyzed by one-way ANOVA followed by the Tukey’s multiple comparison test. Statistical significance was noted when p values were equal or lower than 0.05.

For data set [3], the system named is maximal electroshock seizures in mice. The data set is described as follows: Maximal electroshock seizure threshold (MEST) test. The data set is classed as in vivo. Particulars: for CS50 (seizure threshold): 30 min before test, 95% confidence limits in brackets. An excerpt:
Seizures in the MEST test were evoked by applying a sine-wave alternating current (maximal output voltage 500 V, 50 Hz for 0.2 s) generated by constant current stimulator (Rodent Shocker, Type 221, Hugo Sachs Elektronik, Freiburg, Germany). The stimulation was delivered by saline-socked transcorneal electrodes. Before the stimulation 1% solution of tetracaine hydrochloride was applied into animals’ eyes for local anesthesia. During the stimulation animals were restrained manually and immediately after the stimulation they were placed in the Plexiglas box for observation. The endpoint evaluated in the test was the maximal electroconvulsion which was defined as extension of the hindlimbs above a 90° angle to the torso of animal.
The threshold for maximal electroshock was determined according to the up-and-down method described by Kimball et al.. The mice in the experimental group were subjected to the stimuli with different current intensities (range of 8–30 mA) which changes in 0.06-log steps. If stimulated mouse respond with seizures, the next mouse in the group was stimulated with current of intensity 0.06-log step lower than the previous one. […] Groups of 20 stimulated animals were used to calculate the threshold current strength (CS50 in mA; the current strength which induces tonic hindlimb extension in 50% of the tested animals) with SEM.
CS50 values were compared with one-way ANOVA followed by the Tukey’s multiple comparison test.
On the technique in general: The maximal electroshock test induces tonic seizures with an electrical stimulus.

The subject of data set [4] is 6 Hz-induced psychomotor seizures in mice. As to the kind of experiment: 6 Hz psychomotor seizure test with supramaximal stimulation (32 and 44 mA). Type of data set: in vivo. Particulars: Mus musculus, ip, 30 min before test. An excerpt: Psychomotor (limbic) seizures were induced by transcorneal stimulation (6 Hz, 0.2 ms rectangular pulse, 3 s duration) generated by a Grass S48 stimulator coupled with a constant current unit CCU1 (both from Grass Technologies, West Warwick, RI, USA). Before stimulation a drop of ocular anesthetic, 1% tetracaine hydrochloride solution, was applied into the animals’ corneas. The electrodes were soaked in saline to ensure the good electrical contact. During the stimulation animals were restrained manually and immediately after the stimulation were placed in a Plexiglas box for observation of presence or absence of the psychomotor seizures. These seizures were characterized by immobilization or stun, often associated with rearing, forelimb clonus, twitching of vibrissae and elevated tail (Straub-tail), lasting at least 10 s from the stimulation. Lack of the above symptoms or their cessation within 10 s from the stimulation was considered as absence of seizure activity.
In the present study two 6 Hz-induced psychomotor seizure tests were performed: (1) the 6 Hz psychomotor seizure threshold test which employed stimulation at varied current intensities, and (2) the 6 Hz psychomotor seizure test with supramaximal stimulation at 32 mA and 44 mA. […]

The test system of a further data set is mice. The data set is described as follows: Chimney test. Type of data set: in vivo. Particulars: for Impairment of motor coordination (percentage of animals): 30 min before test. How it is done:
The chimney test was performed to evaluate influence of PTE on motor coordination in mice. During the test mice had to climb backwards up the plastic transparent cylinder (inner diameter 3 cm and length 30 cm) with gravelly inside. The inability of mice to escape from the cylinder within 60 s was considered as an motor impairment. Results obtained in the test were presented as percent of impaired mice in groups of 10–12 animals and were compared with the Fisher’s exact probability test.

Details of data set [5]: method as in PMID 25047917. Particulars: after oral administration; cited from earlier work.

As for `COc1cc(/C=C/c2ccc(O)cc2)cc(OC)c1` [PTE, trans-3,5-dimethoxy-4′-hydroxy-trans-stilbene], the “mean duration of ictal-like discharges” value in data set [1] is on record as “statistically significant reduction”. Moreover, the “number of epileptiform discharges in the zebrafish brain” value in data set [1] (vs vehicle) is given as “significantly reduced”. In addition, the “total duration of epileptiform discharges in the zebrafish brain” value in data set [1] (vs vehicle) is “significantly reduced”. In addition, the “threshold for the first myoclonic twitch vs negative control” value in data set [2] (PTE 100 mg/kg ip, 30 min before test) is reported as “Statistically significant increases”; in data set [2] (PTE 200 mg/kg ip, 30 min before test), “Statistically significant increases”. In addition, in data set [2] (PTE 200 mg/kg ip, 30 min before test, p < 0.01), the “increase of threshold for generalized clonic seizures vs negative control” value is recorded as “over 45%”. Also, the “threshold for tonic forelimb extension vs negative control” value in data set [2] (PTE 50 to 200 mg/kg ip, 30 min before test) is “did not significantly affect”. Besides, the “time of highest anticonvulsant activity after ip administration (time-course effect)” value in data set [2] (iv PTZ test, data not shown) is 30 min. The “CS50 (seizure threshold)” value was 11.40 (10.93–11.87) mA in data set [3] (PTE 100 mg/kg ip) and 16.22 (14.80–17.78) mA in data set [3] (PTE 200 mg/kg ip). Also, the “increase of seizure threshold vs negative control” value in data set [3] (PTE 200 mg/kg ip, p < 0.001) is given as “over 70%”. Further, the “seizure threshold higher than in VPA-treated group (150 mg/kg)” value in data set [3] (PTE 200 mg/kg ip, p < 0.05) came to 15%. Also, the ED50 in data set [4] (current intensity 32 mA) is 506 ± 44.7 mg/kg; in data set [4] (current intensity 44 mA), 541 ± 41.5 mg/kg. Also, the “Impairment of motor coordination (percentage of animals)” value in the data set with mice (PTE 50 mg/kg ip), with mice (PTE 100 mg/kg ip), in the data set on mice (PTE 400 mg/kg ip) and in the data set with mice (PTE 600 mg/kg ip) was 0% throughout. For the same compound, the “influence on motor coordination” value in the data set with mice (PTE 50–800 mg/kg ip) is recorded as “did not significantly influence”. The “brain concentration of PTE relative to pterostilbene-4’sulphate (main metabolite)” value in data set [5] is on record as “nearly fivefold higher”. Moreover, the “time of peak in brain tissue” value in data set [5] is listed as 2 h.
